27 molecules from ChEMBL document CHEMBL1123701, “Synthesis and quantitative structure-activity relationship analysis of N-triiodoallyl- and N-iodopropargylazoles. New antifungal agents” (1987) can be followed below.

The structures appear in SMILES notation. ≈ marks a conversion by molar mass, not a printed value.

One assay concerns Candida albicans. Put plainly: Antifungal activity against Candida albicans C-A-24 strain. In kind it is functional.
The next assay concerns Aspergillus fumigatus. Nature of the assay: Antifungal activity against Aspergillus fumigatus Saito strain. In kind it is functional.
A further assay deals with Cryptococcus neoformans. Put plainly: Antifungal activity against Cryptococcus neoformans Cr-1 strain. In kind it is functional.
The test system of the next assay is Trichophyton benhamiae. Put plainly: Antifungal activity towards Trichophyton mentagrophytes 530324 strain. The assay is classed as functional, Arthroderma benhamiae.
In assay [1] the test system is Trichophyton interdigitale. Nature of the assay: Antifungal activity towards Trichophyton interdigitale. In kind it is functional.

What is called MIC is the lowest concentration found to suppress growth. Higher therefore signals a less susceptible organism. With `CC(C)Cc1nnn(CC#CI)n1`, the MIC with Candida albicans was 3.13 µg/mL (≈ 10.8 µM); with Aspergillus fumigatus, 0.78 µg/mL (≈ 2.69 µM); in the assay with Cryptococcus neoformans, 3.13 µg/mL (≈ 10.8 µM); against Trichophyton benhamiae it was 0.39 µg/mL (≈ 1.34 µM); in assay [1], 0.39 µg/mL (≈ 1.34 µM).

For the molecule `CC(C)c1nnn(CC(I)=C(I)I)n1`, the MIC in the assay with Candida albicans was 6.25 µg/mL (≈ 11.8 µM); in the assay on Trichophyton benhamiae, 0.78 µg/mL (≈ 1.47 µM).

Regarding `Oc1ccc(-c2nnn(CC#CI)n2)cc1`, the MIC against Candida albicans was 6.25 µg/mL (≈ 19.2 µM); against Aspergillus fumigatus, 0.39 µg/mL (≈ 1.2 µM); against Cryptococcus neoformans, 12.5 µg/mL (≈ 38.3 µM); in the assay on Trichophyton benhamiae it was 0.2 µg/mL (≈ 0.613 µM); in assay [1], 0.1 µg/mL (≈ 0.307 µM).

For the molecule `CN(C)c1ccc(-c2nnn(CC#CI)n2)cc1`, the MIC came out at 50 µg/mL (≈ 142 µM) with Candida albicans; 50 µg/mL (≈ 142 µM) with Aspergillus fumigatus; 50 µg/mL (≈ 142 µM) against Cryptococcus neoformans; 0.78 µg/mL (≈ 2.21 µM) in the assay on Trichophyton benhamiae; 0.78 µg/mL (≈ 2.21 µM) in assay [1].

For the molecule `CC(C)Cc1nnnn1CC#CI`, the MIC was 12.5 µg/mL (≈ 43.1 µM) in the assay with Candida albicans; 3.13 µg/mL (≈ 10.8 µM) in the assay with Aspergillus fumigatus; 6.25 µg/mL (≈ 21.5 µM) against Cryptococcus neoformans; 1.56 µg/mL (≈ 5.38 µM) in the assay with Trichophyton benhamiae; 1.56 µg/mL (≈ 5.38 µM) in assay [1].

As for `Cc1nnn(CC(I)=C(I)I)n1`, the minimal inhibitory concentration (MIC) against Candida albicans worked out at 0.78 µg/mL (≈ 1.55 µM); with Aspergillus fumigatus, 0.39 µg/mL (≈ 0.777 µM); against Trichophyton benhamiae it was 0.2 µg/mL (≈ 0.399 µM); in assay [1], 0.2 µg/mL (≈ 0.399 µM).

Consider `CC(C)(C)c1nnn(CC#CI)n1`, for which the MIC against Candida albicans turned out to be 3.13 µg/mL (≈ 10.8 µM); against Aspergillus fumigatus, 1.56 µg/mL (≈ 5.38 µM); against Cryptococcus neoformans, 25 µg/mL (≈ 86.2 µM); in the assay on Trichophyton benhamiae, 0.78 µg/mL (≈ 2.69 µM); in assay [1] it was 0.78 µg/mL (≈ 2.69 µM).

In the case of `Cc1nnnn1CC(I)=C(I)I`, the minimum inhibitory concentration (MIC) was found to be 3.13 µg/mL (≈ 6.24 µM) against Candida albicans and 0.78 µg/mL (≈ 1.55 µM) against Trichophyton benhamiae.

On to `CCCCCCCc1nnnn1CC(I)=C(I)I`, for which the minimal inhibitory concentration (MIC) in the assay with Candida albicans is > 25 µg/mL; in the assay on Cryptococcus neoformans, > 25 µg/mL; in the assay on Trichophyton benhamiae, 0.1 µg/mL (≈ 0.171 µM); in assay [1], 0.1 µg/mL (≈ 0.171 µM).

With `CCCCCc1nnnn1CC(I)=C(I)I`, the MIC is > 25 µg/mL in the assay on Cryptococcus neoformans, 0.1 µg/mL (≈ 0.179 µM) with Trichophyton benhamiae and 0.1 µg/mL (≈ 0.179 µM) in assay [1].

With `CCCCCCCc1nnn(CC#CI)n1`, the MIC was 12.5 µg/mL (≈ 37.6 µM) against Candida albicans; 0.78 µg/mL (≈ 2.35 µM) against Aspergillus fumigatus; 6.25 µg/mL (≈ 18.8 µM) in the assay on Cryptococcus neoformans; 0.1 µg/mL (≈ 0.301 µM) with Trichophyton benhamiae; 0.1 µg/mL (≈ 0.301 µM) in assay [1].

With `Clc1ccc(-c2nnnn2CC#CI)cc1`, the MIC against Candida albicans worked out at 1.56 µg/mL (≈ 4.53 µM); in the assay on Aspergillus fumigatus, 0.39 µg/mL (≈ 1.13 µM); with Trichophyton benhamiae, 0.2 µg/mL (≈ 0.58 µM); in assay [1], 0.39 µg/mL (≈ 1.13 µM).

In the case of `Cc1nccn1CC(I)=C(I)I`, the minimum inhibitory concentration (MIC) against Candida albicans was 12.5 µg/mL (≈ 25 µM); against Aspergillus fumigatus it was 6.25 µg/mL (≈ 12.5 µM); with Cryptococcus neoformans, 25 µg/mL (≈ 50 µM); against Trichophyton benhamiae, 6.25 µg/mL (≈ 12.5 µM); in assay [1], 3.13 µg/mL (≈ 6.26 µM).

Turning to `O=[N+]([O-])c1cn(CC(I)=C(I)I)c(Cl)c1Cl`, the MIC in the assay with Candida albicans stood at 0.39 µg/mL (≈ 0.651 µM); in the assay on Aspergillus fumigatus, 0.2 µg/mL (≈ 0.334 µM); in the assay with Cryptococcus neoformans, 0.2 µg/mL (≈ 0.334 µM); in the assay on Trichophyton benhamiae, 0.2 µg/mL (≈ 0.334 µM).

In the case of `O=[N+]([O-])c1cccn1CC(I)=C(I)I`, the MIC turned out to be 0.39 µg/mL (≈ 0.736 µM) against Candida albicans; 0.39 µg/mL (≈ 0.736 µM) against Aspergillus fumigatus; 6.25 µg/mL (≈ 11.8 µM) in the assay with Cryptococcus neoformans; 0.2 µg/mL (≈ 0.377 µM) with Trichophyton benhamiae; 0.1 µg/mL (≈ 0.189 µM) in assay [1].

With `IC#CCn1nnnc1C1CC1`, the minimum inhibitory concentration (MIC) came out at 12.5 µg/mL (≈ 45.6 µM) with Candida albicans; 3.13 µg/mL (≈ 11.4 µM) in the assay with Aspergillus fumigatus; 12.5 µg/mL (≈ 45.6 µM) in the assay on Cryptococcus neoformans; 1.56 µg/mL (≈ 5.69 µM) in the assay with Trichophyton benhamiae; 3.13 µg/mL (≈ 11.4 µM) in assay [1].

The molecule `Cc1ccc(-c2nnn(CC#CI)n2)cc1` returned an MIC against Trichophyton benhamiae of 0.2 µg/mL (≈ 0.617 µM).

Regarding `IC(I)=C(I)Cn1nnc(-c2ccccc2)n1`, the results for the minimum inhibitory concentration (MIC) (with Candida albicans; with Trichophyton benhamiae; in assay [1]) were 12.5 µg/mL (≈ 22.2 µM), 1.56 µg/mL (≈ 2.77 µM) and 3.13 µg/mL (≈ 5.55 µM), respectively.

As for `IC#CCn1cnnn1`, the MIC in the assay with Candida albicans was 3.13 µg/mL (≈ 13.4 µM); with Aspergillus fumigatus it was 1.56 µg/mL (≈ 6.67 µM); against Cryptococcus neoformans, 0.78 µg/mL (≈ 3.33 µM); in the assay on Trichophyton benhamiae, 1.56 µg/mL (≈ 6.67 µM); in assay [1], 1.56 µg/mL (≈ 6.67 µM).

As to `Clc1ccccc1-c1nnn(CC#CI)n1`, the minimum inhibitory concentration (MIC) in the assay with Candida albicans is 1.56 µg/mL (≈ 4.53 µM); in the assay on Aspergillus fumigatus it was 0.78 µg/mL (≈ 2.26 µM); against Cryptococcus neoformans, 1.56 µg/mL (≈ 4.53 µM); in the assay on Trichophyton benhamiae it was 0.1 µg/mL (≈ 0.29 µM); in assay [1], 0.1 µg/mL (≈ 0.29 µM).

Regarding `IC(I)=C(I)Cn1cnnn1`, the MIC with Candida albicans was 3.13 µg/mL (≈ 6.42 µM); in the assay with Cryptococcus neoformans it was 3.13 µg/mL (≈ 6.42 µM); with Trichophyton benhamiae, 0.39 µg/mL (≈ 0.799 µM).

Take `O=[N+]([O-])c1ccn(CC(I)=C(I)I)c1`: the minimum inhibitory concentration (MIC) in the assay on Candida albicans, with Aspergillus fumigatus and in the assay on Trichophyton benhamiae was 0.2 µg/mL (≈ 0.377 µM) in each case.

With `IC(I)=C(I)Cn1ccnc1`, the minimum inhibitory concentration (MIC) came out at 1.56 µg/mL (≈ 3.21 µM) in the assay on Candida albicans, 1.56 µg/mL (≈ 3.21 µM) against Aspergillus fumigatus, 1.56 µg/mL (≈ 3.21 µM) against Trichophyton benhamiae and 3.13 µg/mL (≈ 6.44 µM) in assay [1].

Turning to `O=[N+]([O-])c1nccn1CC(I)=C(I)I`, the MIC in the assay with Candida albicans and against Trichophyton benhamiae was 0.78 µg/mL (≈ 1.47 µM) throughout.

For the molecule `O=[N+]([O-])c1cn(CC(I)=C(I)I)cn1`, the MIC in the assay with Candida albicans was determined as 3.13 µg/mL (≈ 5.9 µM); in the assay on Aspergillus fumigatus, 0.39 µg/mL (≈ 0.735 µM); against Cryptococcus neoformans it was 6.25 µg/mL (≈ 11.8 µM); in the assay with Trichophyton benhamiae it was 0.78 µg/mL (≈ 1.47 µM); in assay [1] it was 0.39 µg/mL (≈ 0.735 µM).

As to `COC(=O)c1cccn1CC#CI`, the MIC is 3.13 µg/mL (≈ 10.8 µM) against Candida albicans; 1.56 µg/mL (≈ 5.4 µM) with Aspergillus fumigatus; 6.25 µg/mL (≈ 21.6 µM) with Cryptococcus neoformans; 1.56 µg/mL (≈ 5.4 µM) against Trichophyton benhamiae; 1.56 µg/mL (≈ 5.4 µM) in assay [1].

`IC(I)=C(I)Cn1ncnn1`: the minimal inhibitory concentration (MIC) in the assay with Candida albicans is 0.2 µg/mL (≈ 0.41 µM); in the assay on Aspergillus fumigatus, 0.2 µg/mL (≈ 0.41 µM); in the assay with Trichophyton benhamiae it was 0.1 µg/mL (≈ 0.205 µM); in assay [1], 0.1 µg/mL (≈ 0.205 µM).
